Measurements taken from US20040076989A1, “Synaptic transmission assay” (priority 2000, published 2004).
“Also recorded” adds a separate entry of the source.

Tests used:
zif268 mRNA expression = test: zif268 mRNA assay (Northern blot) in cultured dissociated hippocampal neurons; format: cell-based; conditions: added to induction medium
Procedure: The peak in zif268 expression after 30 min established the optimal delay for mRNA-based assays. Similar optimisation of protein-based immunohistochemical assays indicates an optimum 2 h post-exposure delay.
Zif268 mRNA assays were carried out as in Example 2, with cells exposed to ACSF control, to induction medium, or to induction medium with the addition of […] (an inhibitor of MAPK kinase) (FIG. 15) or with the addition of a mixture of the calcium channel blocker cadmium and the glutamate receptor antagonists AP5 and CNQX (FIG. 16).

[1] = test system: neuronal zif268 expression; test: zif268 immunocytochemical assay (zif268/NeuN double-labelled neurons) in dissociated hippocampal neuron culture; format: cell-based, Sprague-Dawley rat; conditions: added to induction medium, 0.2 μM each, 10 min exposure; listed as Carbachol
Procedure: Hippocampal neurons were prepared from late embryonic or 1st postnatal day Sprague-Dawley rates, and grown in dissociated cell culture in microtitre plates. After 7-21 days in vitro, serum-containing medium was replaced with serum-free medium for 24 h. This medium was then replaced with ACSF or with induction medium for 10 minutes; these solutions were then replaced with serum-free medium. After 1 hour, cells were fixed by replacement of serum-free medium with phosphate-buffered saline containing 4% paraformaldehyde. Immunolabelling was then carried out with rabbit antiserum against zif268 and mouse antibodies against the neuron-specific antigen NeuN. After washing, bound antibodies were visualised by incubation with Alexa488-labelled anti-rabbit IgG and Cy3-labelled anti-mouse IgG (FIG. 12 top).
An immunocytochemical assay was carried out as in Example 3, with cells exposed to ACSF, to induction medium, to induction medium with the addition of carbachol and isoproterenol (0.2 μM each) or to induction medium with the addition of carbachol only (0.2 μM).

Compound	effect on chemically-induced zif268 mRNA expression (zif268 mRNA expression)	effect on chemically induced increase in neuronal zif268 immunoreactivity [1]
COc1cccc(-c2cc(=O)c3ccccc3o2)c1N [PD98959]	significantly reduced; also recorded: inhibits	–
C[N+](C)(C)CCOC(N)=O [carbachol]	–	no effect
